One assay concerns the target T1, calpain I (Homo sapiens, UniProt P07384).
T1 sequence (P07384 1-714): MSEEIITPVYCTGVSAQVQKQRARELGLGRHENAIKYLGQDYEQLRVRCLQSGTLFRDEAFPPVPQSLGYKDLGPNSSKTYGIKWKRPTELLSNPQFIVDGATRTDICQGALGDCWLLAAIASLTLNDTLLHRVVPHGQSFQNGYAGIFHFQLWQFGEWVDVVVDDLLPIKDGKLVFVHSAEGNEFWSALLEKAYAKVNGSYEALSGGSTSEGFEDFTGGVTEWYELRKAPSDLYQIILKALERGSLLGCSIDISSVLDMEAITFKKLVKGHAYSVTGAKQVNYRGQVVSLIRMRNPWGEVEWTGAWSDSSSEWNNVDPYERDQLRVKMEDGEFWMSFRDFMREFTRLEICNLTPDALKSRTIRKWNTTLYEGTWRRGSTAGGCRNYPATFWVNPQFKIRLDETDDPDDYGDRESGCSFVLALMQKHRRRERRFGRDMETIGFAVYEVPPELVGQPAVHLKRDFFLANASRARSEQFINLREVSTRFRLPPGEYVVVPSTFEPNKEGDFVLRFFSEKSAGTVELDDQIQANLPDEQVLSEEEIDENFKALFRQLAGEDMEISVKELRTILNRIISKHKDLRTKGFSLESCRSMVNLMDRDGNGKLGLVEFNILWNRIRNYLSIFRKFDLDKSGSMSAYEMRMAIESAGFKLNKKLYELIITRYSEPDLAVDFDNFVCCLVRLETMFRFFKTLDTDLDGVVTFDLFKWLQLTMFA
T1 sequence (P04632 1-268 partner): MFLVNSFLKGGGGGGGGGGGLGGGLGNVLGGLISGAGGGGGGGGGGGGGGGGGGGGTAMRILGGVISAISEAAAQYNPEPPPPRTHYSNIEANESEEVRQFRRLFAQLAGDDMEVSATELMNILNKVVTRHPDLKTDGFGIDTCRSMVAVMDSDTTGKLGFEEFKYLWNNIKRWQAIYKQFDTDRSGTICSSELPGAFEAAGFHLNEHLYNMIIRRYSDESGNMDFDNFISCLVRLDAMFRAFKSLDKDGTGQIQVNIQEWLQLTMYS
The assay is described as follows: Assay of Calpain Activity (casein substrate, microplate, Coomassie blue). The assay is classed as biochemical. Further details: Calpain I was purified from human erythrocytes; from tissue; host or cells: human erythrocytes. On the procedure: In 250 μL of reaction mixture, substrate casein (0.5 mg/mL) was incubated with 0.01 unit (80-120 ng) calpain I, 20 mM dithiothreitol (DTT), 50 mM Tris-HCl (pH 7.4 at 25° C.), and 4 mM CaCl2 at 25° C. for 60 minutes. Two 100-μL aliquots were taken for Coomassie blue binding analysis to quantify the remaining casein.
Calpain I was assayed as described (α-mercaptoacrylic acid). […] Inhibition of these proteases are presented as IC50.

The target of the next assay is T2, thermolysin (Bacillus thermoproteolyticus, UniProt P00800).
T2 construct: purchased Sigma P1512; host or cells: Bacillus thermoproteolyticus
T2 sequence (P00800 233-548): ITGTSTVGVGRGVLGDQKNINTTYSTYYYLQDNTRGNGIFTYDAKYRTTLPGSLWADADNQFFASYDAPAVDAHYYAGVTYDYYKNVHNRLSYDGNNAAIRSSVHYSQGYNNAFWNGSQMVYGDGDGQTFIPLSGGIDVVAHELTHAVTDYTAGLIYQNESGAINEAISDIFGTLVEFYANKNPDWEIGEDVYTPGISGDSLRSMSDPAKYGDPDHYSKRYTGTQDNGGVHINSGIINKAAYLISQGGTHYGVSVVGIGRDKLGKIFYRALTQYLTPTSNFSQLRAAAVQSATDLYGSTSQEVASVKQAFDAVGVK
The assay is described as follows: Selectivity: thermolysin protease assay (casein substrate). The assay is classed as biochemical. On the procedure:
(§1) Calpain I was assayed as described (α-mercaptoacrylic acid). Ten to 20 ng papain (papaya latex, Sigma, P3125), 1.25 μg trypsin (bovine pancreas, Sigma, T8003), and 5 μg thermolysin (Bacillus thermoproteolyticus, Sigma, P1512) were assayed using 0.5 mg/mL casein as substrate in the microplate format (250 μL reaction volume), essentially as described by Buroker-Kilgore M., Wang K. K. W., Anal Biochem 1993;208:387-392. Inhibition of these proteases are presented as IC50.

The target in a further assay is T3, trypsin (Bos taurus, UniProt P00760).
T3 construct: purchased Sigma T8003; host or cells: bovine pancreas
T3 sequence (P00760 24-246): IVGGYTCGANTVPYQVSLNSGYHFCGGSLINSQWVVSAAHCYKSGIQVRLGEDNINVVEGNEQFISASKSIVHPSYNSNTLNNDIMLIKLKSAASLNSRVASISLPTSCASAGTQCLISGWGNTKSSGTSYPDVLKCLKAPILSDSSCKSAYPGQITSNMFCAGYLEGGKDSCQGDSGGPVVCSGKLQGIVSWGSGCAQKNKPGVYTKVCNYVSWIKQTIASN
Description: Selectivity: trypsin protease assay (casein substrate). The assay is classed as biochemical, bovine. The following applies: Table II; read-out: Inhibitory Activity of Thiol-Acrylates, Trypsin (IC50). On the procedure:
as §1

In another assay the target is T4, papain (Carica papaya, UniProt P00784).
T4 construct: purchased Sigma P3125; host or cells: papaya latex
T4 sequence (P00784 134-345): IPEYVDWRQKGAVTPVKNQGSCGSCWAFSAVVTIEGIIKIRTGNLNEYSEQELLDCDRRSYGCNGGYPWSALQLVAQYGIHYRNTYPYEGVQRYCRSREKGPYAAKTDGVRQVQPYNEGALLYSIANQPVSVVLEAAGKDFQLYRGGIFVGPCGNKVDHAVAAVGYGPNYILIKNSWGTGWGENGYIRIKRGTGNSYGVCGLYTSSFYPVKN
Description: Selectivity: papain protease assay (casein substrate). The assay is classed as biochemical. The following applies: Table II; read-out: Inhibitory Activity of Thiol-Acrylates, Papain (IC50). On the procedure: as §1

In assay [1] the test system is Fetal rat cortical cell cultures. The assay is described as follows: Assay of Lactate Dehydrogenase (LDH): NMDA-induced LDH release. Type of assay: cell-based. The following applies: FIG. II; for block of NMDA-induced LDH release (in words): 500 μM NMDA, 200 μM calpain inhibiting compound. On the procedure:
Seventeen-day-old cultures were pretreated with 200 μM calpain inhibiting compound (when added) for 1 hour before treatment of 500 μM N-methyl-D-aspartate (NMDA) for 30 minutes (in the absence or the presence of the compound).

The test system of assay [2] is spectrin breakdown in rat cortical cell cultures. Description: Spectrin Breakdown Measurement (immunoblot). The assay is classed as cell-based. The following applies: NMDA-treated cortical cells, 4-hour post-NMDA. On the procedure:
Rat cortical cell cultures were treated with NMDA in the absence or presence of calpain inhibiting compounds as described in "Assay of LDH" above. At the end of the 4-hour post-NMDA incubation, cells were lysed with 300 μL buffer containing 20 mM Tris-HCL (pH 7.4 at 4° C.), 1% SDS, 5 mM EGTA, 5 mM EDTA, 1 mM DTT, and various protease inhibitors. Total cellular protein was precipitated by 100 μL of 100% trichloroacetic acid. The samples were centrifuged and the pelleted protein solubilized with 50 μl of 3M Tris base. […] The blots were then probed with rabbit antibrain spectrin antibody (primary antibody) followed by alkaline phosphatase-conjugated goat antirabbit immunoglobulin G antibody (secondary antibody). […] The SBP were quantified by densitometry (BioRad Model 620).

Where [3] appears, read: Table I, 4 mM CaCl2, pH 7.4, 25° C., 60 minutes, read-out: Inhibitory Activity Against Human Calpain I IC50.
[4] abbreviates: Table II (selectivity), read-out: Inhibitory Activity of Thiol-Acrylates, Calpain (IC50).

Read-outs that look alike come from different tables or passages of the source.

As for `O=C(O)/C(S)=C/c1ccc(F)cc1` [Example 10, 2-Propenoic Acid, 3-(4-fluorophenyl)-2-mercapto], the IC50 on calpain I (setting [3]) came out at 1.2 µM.
As for `O=C(O)/C(S)=C/c1ccccc1` [Example 51, 2-Propenoic Acid, 2-mercapto-3-phenyl], the IC50 was 367 µM at thermolysin; greater than 200 µM at trypsin; 5.9 µM at calpain I (setting [3]); 5.9 µM on calpain I (setting [4]); greater than 200 µM at papain.
For the compound `O=C(O)/C(S)=C/c1ccc(CCc2ccccc2)cc1` [Example 47, (Z)-2-Propenoic Acid, 2-mercapto-3-[4-(2-phenylethyl)-phenyl]], the IC50 at calpain I (setting [3]) came out at 2.7 µM.
Consider `O=C(O)/C(S)=C/c1ccc(OCc2ccccc2)cc1` [Example 18, (Z)-2-Propenoic Acid, 2-mercapto-3-[4-(phenylmethoxy)phenyl]], for which the “block of NMDA-induced LDH release (in words)” value in assay [1] is recorded as “partially blocked”. Also, at calpain I (setting [3]), the concentration for half-maximal inhibition (IC50) was determined as 1.8 µM.
Regarding `O=C(O)/C(S)=C/c1ccc2c(c1)Cc1ccccc1-2` [Example 53, 2-Propenoic Acid, 3-(9H-fluoren-2-yl)-2-mercapto], on calpain I (setting [3]), the IC50 worked out at 1.6 µM.
Turning to `O=C(O)/C(S)=C/c1c[nH]c2ccccc12` [Example 22, (Z)-2-Propenoic Acid, 3-(1H-indol-3-yl)-2-mercapto], in assay [2], the “spectrin breakdown product (SBP) formation, 150 kDa and 145 kDa (in words)” value is recorded as “partially blocked SBP formation”. Also, the IC50 against thermolysin is 248 µM; on trypsin, greater than 200 µM; on calpain I (setting [3]) it was 1.3 µM; at calpain I (setting [4]), 1.3 µM; at papain, greater than 200 µM.
Take `COc1ccc(/C(C)=C(\S)C(=O)O)cc1` [Example 14, (Z)-2-Butanoic Acid, 2-mercapto-3-(4-methoxyphenyl)]: the inhibition at 200 µM on calpain I (at 200 μM, Table I, read-out: Inhibitory Activity Against Human Calpain I, % inhibition) is 66%.
Consider `O=C(O)/C(S)=C/c1cccc2ccccc12` [Example 20, (Z)-2-Propenoic Acid, 2-mercapto-3-(1-naphthalenyl)], for which the concentration for half-maximal inhibition (IC50) on calpain I (setting [3]) was 3.6 µM.
Regarding `O=C(O)/C(S)=C/c1cc2ccccc2[nH]1` [Example 25, 3-(2-indolyl)-2-mercapto-2-propenoic Acid], on calpain I (setting [3]), the IC50 was determined as 1.7 µM.
As for `CN[C@H](CC(=O)O)C(=O)O` [NMDA, N-methyl-D-aspartate, reference compound], the “LDH release from the cells” value in assay [1] (500 μM NMDA 30 minutes, additional 4 hours) was “about 210 unit/mL”.
Consider `Cc1cc(/C=C(\S)C(=O)O)c(C)n1-c1ccccc1` [Example 38, (Z)-2-Propenoic Acid, 3-(2,5-dimethyl-1-phenyl-1H-pyrrol-3-yl)-2-mercapto], for which, on calpain I (setting [3]), the IC50 was 13.6 µM.
Regarding `O=C(O)/C(S)=C/c1ccsc1` [Example 49, (Z)-2-Propenoic Acid, 3-(3-thienyl)-2-mercapto], at calpain I (setting [3]), the IC50 came to 7.5 µM.
With `O=C(O)/C(S)=C/c1ccc2c(c1)CCCC2` [Example 44, (Z)-2-propenoic acid, 2-mercapto-3-(5,6,7,8-tetrahydro-2-naphthalenyl)], the IC50 on calpain I (setting [3]) stood at 1.7 µM.
Take `O=C(O)/C(S)=C/c1ccc(I)cc1` [Example 8, (Z)-2-propenoic Acid, 3-(4-iodophenyl)-2-mercapto]: the IC50 was 204 µM at thermolysin, greater than 500 µM at trypsin, 0.36 µM against calpain I and greater than 500 µM at papain.
In the case of `CCn1c2ccccc2c2cc(/C=C(\S)C(=O)O)ccc21` [Example 12], the IC50 at calpain I (setting [3]) stood at 1.1 µM.
Take `O=C(O)/C(S)=C/c1cc2ccccc2c2ccccc12` [Example 27, 3-(9--phenanthyl)-2-mercapto-2-propenoic Acid]: the IC50 on calpain I (setting [3]) worked out at 3.1 µM.
For the compound `O=C(O)/C(S)=C/c1cc2ccccc2o1` [Example 31, (Z)-2-Propenoic Acid, 3-(2-benzofuranyl)-2-mercapto], the IC50 on calpain I (setting [3]) worked out at 3.2 µM.
As for `C[C@]12N[C@H](Cc3ccccc31)c1ccccc12` [MK-801, reference compound], the “spectrin breakdown product (SBP) formation, 150 kDa and 145 kDa (in words)” value in assay [2] is listed as “inhibited the SBP formation”. In addition, the “block of NMDA-induced LDH release (in words)” value in assay [1] is recorded as “blockable”.
`O=C(O)/C(S)=C/c1ccc2c(c1)OCO2` [Example 36, (Z)-2-propenoic acid, 3-(5-benzodioxoyl)-2-mercapto]: the IC50 on calpain I (setting [3]) turned out to be 1.2 µM.
Still for that read-out and setting: to `COc1ccc2cc(/C=C(\S)C(=O)O)ccc2c1` [Example 34, (Z)-2-Propenoic Acid, 2-mercapto-3-(6-methoxy-2-naphthalenyl)] belongs 2.1 µM; to `CC(C)(C)c1ccc(/C=C(\S)C(=O)O)cc1` [Example 40, (Z)-2-propenoic Acid, 3-[4-(1,1-dimethylethyl)phenyl]-2-mercapto], 7.8 µM; to `O=C(O)/C(S)=C/c1c[nH]c2ccc(F)cc12` [Example 4, 3-(5-fluoro-3-indolyl)-2-mercapto-2-propenoic Acid], 0.45 µM.
The same measure, in the same setting: to `O=C(O)/C(S)=C/c1ccc(-c2ccccc2)cc1` [Example 16, (Z)-2-Propenoic Acid, 3-[1,1'-biphenyl)-4-yl-2-mercapto] belongs 3 µM; to `O=C(O)/C(S)=C/c1cccs1` [Example 29], 4 µM.
For the compound `O=C(O)/C(S)=C/c1c(-c2ccc(Cl)cc2)[nH]c2ccccc12` [Example 42, (Z)-2-propenoic acid, 3-[2-(4-chlorophenyl)-1H-indol-3-yl]-2-mercapto], the IC50 at calpain I (setting [3]) was determined as 6 µM.

Values taken from US5760048A, “Alpha-mercaptoacrylic acid derivatives having calpain inhibitory activity” (Warner-Lambert Company, priority 1996, dated 1998).
